Reference: patent US11214803B2, “Modulators of YAP1 expression” (Ionis Pharmaceuticals, Inc., priority 2019, dated 2022)
Strand notation (5' to 3'): a small letter for the sugar, then the base; units joined by * are phosphorothioate-linked, units joined directly phosphodiester-linked; [ ] holds rarer units or linkages, { } end groups; capitals alone tell only the bases. k = constrained ethyl (cEt); [5mC] = 5-methylcytosine; d = 2'-deoxy (DNA)

System: Yap1 mRNA
Experiment: Antisense inhibition of human Yap1 in A-431 cells by cEt gapmers, single dose (Example 1, RTS4814)
Type: cell-based
In short: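 Free uptake of 2,000 nM 3-10-3 cEt gapmer (16-mer, full phosphorothioate, 5-methylcytosines) in A-431 cells for ~48 h. Yap1 mRNA quantified by qRT-PCR with set RTS4814, normalized to total RNA (RiboGreen), and expressed as % of untreated control; asterisked values target the amplicon region.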

[1] = Table 1, A-431 cells, free uptake, 2,000 nM, approximately 48 hours, RTS4814, Yap1 mRNA relative to untreated control cells
[2] = Table 2, A-431 cells, free uptake, 2,000 nM, approximately 48 hours, RTS4814, Yap1 mRNA relative to untreated control cells
[3] = A-431 cells, 5,000 cells per well, free uptake, 2,000 nM modified oligonucleotide, approx. 48 hours, RTS4814, normalized to RIBOGREEN, Table 3

715442 (antisense k[5mC]*kA*k[5mC]*dT*dG*dG*dA*dG*d[5mC]*dA*d[5mC]*dT*d[5mC]*kT*kG*kA) [Compound 715442]
YAP1 (% UTC) [1]: 64 % UTC

715611 (antisense k[5mC]*kT*kT*dT*dA*dA*dG*d[5mC]*d[5mC]*dA*d[5mC]*dA*dT*kG*kG*kT) [Compound 715611]
YAP1 (% UTC) [2]: 106 % UTC

715439 (antisense kG*kG*kT*dT*d[5mC]*dA*dT*dG*dG*d[5mC]*dA*dA*dA*kA*k[5mC]*kG) [Compound 715439]
YAP1 (% UTC) [1]: 99 % UTC

715421 (kG*kT*kG*dA*dT*dT*dT*dA*dA*dG*dA*dA*dG*kT*kA*kT; antisense) [Compound 715421]
YAP1 (% UTC) [1]: 71 % UTC

715503 (antisense k[5mC]*k[5mC]*k[5mC]*d[5mC]*dA*dG*dA*d[5mC]*dT*dT*dA*dA*dT*kT*k[5mC]*kA) [Compound 715503]
YAP1 (% UTC) [2]: 136 % UTC

715470 (antisense kT*k[5mC]*kT*dA*dG*d[5mC]*dT*dT*dG*dG*dT*dG*dG*k[5mC]*kA*kG) [Compound 715470]
YAP1 (% UTC) [2]: 83 % UTC

715498 (antisense kT*kG*kA*dA*d[5mC]*d[5mC]*d[5mC]*dT*dT*dG*dA*dA*dA*kA*kT*kA) [Compound 715498]
YAP1 (% UTC) [3]: 91 % UTC

715468 (antisense kG*k[5mC]*kT*dT*dG*dG*dT*dG*dG*d[5mC]*dA*dG*d[5mC]*k[5mC]*kA*kA) [Compound 715468]
YAP1 (% UTC) [3]: 90 % UTC

715573 (kT*kA*kT*dA*dT*dA*dT*dG*dG*dT*dA*dG*dT*k[5mC]*kT*kA; antisense) [Compound 715573]
YAP1 (% UTC) [3]: 76 % UTC

715456 (antisense kA*kG*kT*dG*dA*dT*dA*dG*dG*dT*dG*d[5mC]*d[5mC]*kA*k[5mC]*kT) [Compound 715456]
YAP1 (% UTC) [3]: 96 % UTC

715453 (antisense kA*kG*kG*dT*dG*d[5mC]*d[5mC]*dA*d[5mC]*dT*dG*dT*dT*kA*kA*kG) [Compound 715453]
YAP1 (% UTC) [3]: 59 % UTC

715480 (antisense kG*kG*kA*dA*dA*d[5mC]*d[5mC]*dA*dT*dT*dA*dT*dT*kA*k[5mC]*kT) [Compound 715480]
YAP1 (% UTC) [3]: 23 % UTC

715501 (antisense kA*kA*kA*dA*dG*d[5mC]*d[5mC]*dT*dT*dA*dG*dA*dG*kT*k[5mC]*kA) [Compound 715501]
YAP1 (% UTC) [3]: 28 % UTC

715563 (kA*kG*k[5mC]*dA*d[5mC]*dA*d[5mC]*dA*dA*d[5mC]*dT*d[5mC]*dA*kG*kA*k[5mC]; antisense) [Compound 715563]
YAP1 (% UTC) [2]: 86 % UTC

715608 (antisense kA*kA*kT*dT*dG*dT*dA*dT*d[5mC]*d[5mC]*dA*dG*dA*k[5mC]*kA*kT) [Compound 715608]
YAP1 (% UTC) [2]: 100 % UTC

715455 (antisense kT*kG*kA*dT*dA*dG*dG*dT*dG*d[5mC]*d[5mC]*dA*d[5mC]*kT*kG*kT) [Compound 715455]
YAP1 (% UTC) [2]: 65 % UTC

715433 (antisense kT*kG*kT*dT*d[5mC]*dT*dT*dA*dT*dG*dG*dT*dT*kT*kA*kT) [Compound 715433]
YAP1 (% UTC) [1]: 36 % UTC

715504 (antisense kT*kG*kG*dT*dT*dT*dA*dT*dT*dG*dT*dA*dA*kA*kA*kG) [Compound 715504]
YAP1 (% UTC) [3]: 70 % UTC

715513 (kG*k[5mC]*kG*dG*dA*dG*dG*d[5mC]*dG*d[5mC]*dG*d[5mC]*dG*k[5mC]*kA*kT; antisense) [Compound 715513]
YAP1 (% UTC) [3]: 125 % UTC

715560 (k[5mC]*k[5mC]*k[5mC]*dT*dT*dT*dA*d[5mC]*dA*dA*dA*dA*dA*kT*kA*kG; antisense) [Compound 715560]
YAP1 (% UTC) [2]: 98 % UTC

715430 (kA*kT*k[5mC]*d[5mC]*dT*dG*dA*dG*dT*d[5mC]*dA*dT*dG*kG*k[5mC]*kT; antisense) [Compound 715430]
YAP1 (% UTC) [1]: 118 % UTC

715497 (antisense kA*kA*k[5mC]*d[5mC]*d[5mC]*dT*dT*dG*dA*dA*dA*dA*dT*kA*kA*kG) [Compound 715497]
YAP1 (% UTC) [2]: 155 % UTC

715479 (antisense kA*kA*kA*d[5mC]*d[5mC]*dA*dT*dT*dA*dT*dT*dA*d[5mC]*kT*k[5mC]*k[5mC]) [Compound 715479]
YAP1 (% UTC) [2]: 38 % UTC

715520 (kT*kT*k[5mC]*dT*dT*dT*d[5mC]*d[5mC]*dA*d[5mC]*dT*d[5mC]*dA*kA*kG*kT; antisense) [Compound 715520]
YAP1 (% UTC) [1]: 122 % UTC

715583 (kG*kG*kG*d[5mC]*d[5mC]*dA*d[5mC]*dA*dA*dA*dA*dT*dA*kA*kA*kA; antisense) [Compound 715583]
YAP1 (% UTC) [1]: 164 % UTC

715589 (k[5mC]*k[5mC]*kA*dG*d[5mC]*dA*dG*d[5mC]*dT*dA*dA*d[5mC]*dA*kG*k[5mC]*kT; antisense) [Compound 715589]
YAP1 (% UTC) [1]: 107 % UTC

715418 (kA*kG*kT*dG*dT*d[5mC]*d[5mC]*d[5mC]*dA*dG*dG*dA*dG*kA*kA*kA; antisense) [Compound 715418]
YAP1 (% UTC) [1]: 126 % UTC

715459 (antisense k[5mC]*kT*k[5mC]*dG*dA*dG*dA*dG*dT*dG*dA*dT*dA*kG*kG*kT) [Compound 715459]
YAP1 (% UTC) [3]: 93 % UTC

715617 (antisense kA*kA*kG*dA*d[5mC]*dG*dG*dA*dT*dA*dA*dA*dA*kA*kT*kT) [Compound 715617]
YAP1 (% UTC) [2]: 98 % UTC

715547 (kG*kT*kT*dG*dA*d[5mC]*d[5mC]*dA*dA*d[5mC]*dT*dA*d[5mC]*kT*kT*kG; antisense) [Compound 715547]
YAP1 (% UTC) [1]: 98 % UTC

715592 (kT*kT*k[5mC]*dT*dT*dT*dG*dG*d[5mC]*dA*dG*dA*dG*kA*kT*kA; antisense) [Compound 715592]
YAP1 (% UTC) [1]: 89 % UTC

715411 (kG*k[5mC]*kA*dT*d[5mC]*dA*dG*dT*dA*d[5mC]*dT*dG*dG*k[5mC]*k[5mC]*kT; antisense) [Compound 715411]
YAP1 (% UTC) [3]: 94 % UTC

715412 (k[5mC]*kT*kG*d[5mC]*dA*dT*d[5mC]*dA*dG*dT*dA*d[5mC]*dT*kG*kG*k[5mC]; antisense) [Compound 715412]
YAP1 (% UTC) [1]: 66 % UTC

715477 (antisense kA*kG*kA*d[5mC]*dA*d[5mC]*dA*dT*dA*d[5mC]*dT*d[5mC]*dT*kA*kG*kT) [Compound 715477]
YAP1 (% UTC) [3]: 61 % UTC

715512 (antisense kA*kG*kG*d[5mC]*dG*d[5mC]*dG*d[5mC]*dG*d[5mC]*dA*dT*dT*kG*kT*kG) [Compound 715512]
YAP1 (% UTC) [2]: 97 % UTC

715603 (antisense kG*k[5mC]*kA*d[5mC]*dA*dG*dA*dA*dT*dT*d[5mC]*d[5mC]*d[5mC]*kA*kA*kG) [Compound 715603]
YAP1 (% UTC) [3]: 106 % UTC

715486 (antisense kT*kA*k[5mC]*dT*dT*d[5mC]*dA*dT*dA*dG*d[5mC]*dT*dT*kA*kT*kA) [Compound 715486]
YAP1 (% UTC) [3]: 27 % UTC

715569 (k[5mC]*kA*kA*dA*dG*dG*dT*dA*dG*dG*dA*dT*dA*kA*kA*kT; antisense) [Compound 715569]
YAP1 (% UTC) [2]: 122 % UTC

715416 (k[5mC]*kT*k[5mC]*dG*dA*dA*d[5mC]*dA*dT*dG*d[5mC]*dT*dG*kT*kG*kG; antisense) [Compound 715416]
YAP1 (% UTC) [2]: 53 % UTC

715499 (antisense kT*kA*kT*dG*dA*dA*d[5mC]*d[5mC]*d[5mC]*dT*dT*dG*dA*kA*kA*kA) [Compound 715499]
YAP1 (% UTC) [1]: 126 % UTC

715540 (kT*kG*kA*dA*dG*dA*dA*d[5mC]*dT*dA*dT*dT*dT*k[5mC]*k[5mC]*kT; antisense) [Compound 715540]
YAP1 (% UTC) [3]: 82 % UTC

715432 (k[5mC]*kT*k[5mC]*d[5mC]*dA*dT*d[5mC]*d[5mC]*dT*dG*dA*dG*dT*k[5mC]*kA*kT; antisense) [Compound 715432]
YAP1 (% UTC) [3]: 65 % UTC

715565 (kG*kG*kA*dT*dA*dA*dA*dT*dG*dA*dA*dT*dT*kA*kT*kA; antisense) [Compound 715565]
YAP1 (% UTC) [1]: 115 % UTC

715407 (kG*kG*k[5mC]*dT*dT*dG*dA*dA*dG*dA*dA*dG*dG*kA*kG*kT; antisense) [Compound 715407]
YAP1 (% UTC) [2]: 53 % UTC

715541 (k[5mC]*kT*kT*dG*dA*dA*dG*dA*dA*d[5mC]*dT*dA*dT*kT*kT*k[5mC]; antisense) [Compound 715541]
YAP1 (% UTC) [1]: 105 % UTC

715614 (antisense kA*kA*kA*dT*dT*dA*d[5mC]*dT*dT*dT*dA*dA*dG*k[5mC]*k[5mC]*kA) [Compound 715614]
YAP1 (% UTC) [2]: 110 % UTC

715613 (antisense kA*kT*kT*dA*d[5mC]*dT*dT*dT*dA*dA*dG*d[5mC]*d[5mC]*kA*k[5mC]*kA) [Compound 715613]
YAP1 (% UTC) [1]: 85 % UTC

715402 (kA*kG*kG*dA*dG*dT*d[5mC]*dG*dG*dG*d[5mC]*dA*dG*k[5mC]*kT*kT; antisense) [Compound 715402]
YAP1 (% UTC) [3]: 59 % UTC

715534 (kT*k[5mC]*k[5mC]*d[5mC]*d[5mC]*dA*dG*dG*dT*d[5mC]*dA*dG*d[5mC]*kA*kT*kG; antisense) [Compound 715534]
YAP1 (% UTC) [3]: 112 % UTC

715452 (antisense kG*kT*k[5mC]*dA*dT*dT*dG*dT*dT*d[5mC]*dT*d[5mC]*dA*kA*kT*kT) [Compound 715452]
YAP1 (% UTC) [2]: 71 % UTC
